Laboratory results from patent US20080090906A1, “Use of Acetyl L-Carnitine In Combination With Propionyl L-Carnitine and Sildenafil for the Treatment of Erectile Dysfunction” (SIGMA-TAU INDUSTRIE FARMACEUTICHE RIUNITE S.P.A., priority 2004, published 2008).

Columns and labels:
[1] = tested on: Patients undergoing bilateral nerve-sparing radical retropubic prostatectomy (bnsrrp); test: Randomised, double-blind placebo-controlled clinical trial: IIEF-15 scores after 4 months' treatment, bnsrrp patients; type: in vivo, human
Method: (§1) To assess the activity of the combination according to the invention for the treatment of erectile dysfunction, a randomised, double-blind placebo-controlled clinical trial was conducted.
(§2) The patients entered into the trial had to meet the following inclusion criteria: • erectile dysfunction secondary to radical retropubic prostatectomy, with or without bilateral sparing of the neurovascular bundles, in patients in whom the prostatectomy had been performed at least 6 months but less than 2 years prior to entry into the clinical trial; • complete erectile function prior to the prostatectomy (this information had to be confirmed by the partner or documented in the patient's hospital file; • not on medical treatment for prostate cancer; • not on treatment for erectile dysfunction before or after prostatectomy; • normal total and free prostate antigen values; • involvement in a heterosexual relationship for at least 6 months prior to surgery.
(§3) The patients recruited into the study were divided into two main groups on the basis of whether or not they had undergone bilateral nerve sparing surgery (rrp and bnsrrp).
(§4) These two groups were further subdivided into the following subsets:
(§5) c) sildenafil 100 mg+propionyl L-carnitine 2 g+acetyl L-carnitine 2 g;
(§6) d) propionyl L-carnitine 2 g;
(§7) e) acetyl L-carnitine 2 g.
(§8) f) propionyl L-carnitine 2 g+acetyl L-carnitine 2 g;
(§9) g) sildenafil 100 mg+propionyl L-carnitine 2 g;
(§10) h) sildenafil 100 mg+acetyl L-carnitine 2 g.
(§11) The carnitines (acetyl L-carnitine and propionyl L-carnitine) were administered orally twice daily (1 g×2/day).
(§12) Sildenafil was administered (as required) and taken 1-2 hours before sexual intercourse at a dose of 100 mg.
(§13) The placebo was administered in the place of acetyl L-carnitine and/or propionyl L-carnitine and/or sildenafil.
(§14) After 4 months' treatment the following variables were analysed:
(§15) 1. erectile function (evaluated by “IIEF-15” scores: IIEF=International Index of Erectile Function);
(§16) 2. satisfaction with sexual intercourse (IIEF-15);
(§17) 4. general sexual well-being (IIEF-15);

[2] = tested on: Patients undergoing bilateral nerve-sparing radical retropubic prostatectomy (bnsrrp); test: Clinical trial: recording of nocturnal penile tumescence (NPT) with RigiScan, bnsrrp patients; type: in vivo, human; settings: total duration over three nights
Method: as §1, §2, §3, §4, §5, §6, §7, §8, §9, §10, §11, §12, §13, §14
(§18) 5. recording of nocturnal penile tumescence (NPT) [evaluated with RigiScan (Dacomed-Minnesota). A >70% increase in rigidity compared to baseline at the base of the penis and >60% at the upper end of the penis, a >2 cm increase in circumference at the upper end of the penis and >3 cm at the base were considered “complete erection”. The total duration (minutes) of the recording period on three nights was assessed.

[3] = tested on: Patients undergoing radical retropubic prostatectomy (rrp) without bilateral sparing of the neurovascular bundles; test: Randomised, double-blind placebo-controlled clinical trial: IIEF-15 scores after 4 months' treatment, rrp patients; type: in vivo, human; settings: rrp patients without nerve sparing
Method: as §1, §2, §3, §4, §5, §6, §7, §8, §9, §10, §11, §12, §13, §14, §15, §16, §17

[4] = tested on: Patients undergoing radical retropubic prostatectomy (rrp) without bilateral sparing of the neurovascular bundles; test: Clinical trial: recording of nocturnal penile tumescence (NPT) with RigiScan, rrp patients; type: in vivo, human; settings: rrp patients without nerve sparing, total duration over three nights
Method: as §1, §2, §3, §4, §5, §6, §7, §8, §9, §10, §11, §12, §13, §14, §18

patients undergoing rrp = settings: cited from earlier work
[5] = tested on: patients undergoing bnsrrp; settings: cited from earlier work
[6] = after therapy (4 months' treatment)

| SMILES | Erectile function, mean ± s.d. [1, 6] | General sexual well-being, mean ± s.d. [1, 6] | Orgasm, mean ± s.d. [1, 6] | Satisfaction with sexual intercourse, mean ± s.d. [1, 6] | Erectile function, mean ± s.d. ([1]; before therapy (baseline)) | General sexual well-being, mean ± s.d. ([1]; before therapy (baseline)) | Orgasm, mean ± s.d. ([1]; before therapy (baseline)) | Satisfaction with sexual intercourse, mean ± s.d. ([1]; before therapy (baseline)) | Recording of nocturnal penile tumescence (NPT), mean ± s.d. [2, 6] | Recording of nocturnal penile tumescence (NPT), mean ± s.d. ([2]; before therapy (baseline)) | Erectile function, mean ± s.d. [3, 6] | General sexual well-being, mean ± s.d. [3, 6] | Orgasm, mean ± s.d. [3, 6] | Satisfaction with sexual intercourse, mean ± s.d. [3, 6] | Erectile function, mean ± s.d. ([3]; before therapy (baseline)) | General sexual well-being, mean ± s.d. ([3]; before therapy (baseline)) | Orgasm, mean ± s.d. ([3]; before therapy (baseline)) | Satisfaction with sexual intercourse, mean ± s.d. ([3]; before therapy (baseline)) | Recording of nocturnal penile tumescence (NPT), mean ± s.d. [4, 6] | Recording of nocturnal penile tumescence (NPT), mean ± s.d. ([4]; before therapy (baseline)) | other results |
| --- | --- | --- | --- | --- | --- | --- | --- | --- | --- | --- | --- | --- | --- | --- | --- | --- | --- | --- | --- | --- | --- |
| CC(=O)O[C@H](CC(=O)[O-])C[N+](C)(C)C [Acetyl L-carnitine 2 g, acetyl L-carnitine] | 17.2 ± 3.5 IIEF 15 Score | 3.9 ± 1.1 IIEF 15 score | 4.0 ± 0.9 IIEF 15 score | 4.0 ± 1.1 IIEF 15 score | 11.3 ± 3.8 IIEF 15 Score | 2.9 ± 1.0 IIEF 15 score | 3.2 ± 1.1 IIEF 15 score | 3.1 ± 1.1 IIEF 15 score | 79.0 ± 12.3 min | 70.8 ± 14.9 min | 4.1 ± 1.0 IIEF 15 score | 1.2 ± 0.5 IIEF 15 score | 0.9 ± 0.4 IIEF 15 score | 1.9 ± 0.6 IIEF 15 score | 3.2 ± 1.1 IIEF 15 score | 1.0 ± 0.4 IIEF 15 score | 0.8 ± 0.6 IIEF 15 score | 1.8 ± 0.8 IIEF 15 score | 38.2 ± 5.7 min | 37.7 ± 8.8 min |  |
| CCC(=O)O[C@H](CC(=O)[O-])C[N+](C)(C)C [Propionyl L-carnitine 2 g, propionyl L-carnitine] | 18.1 ± 3.2 IIEF 15 Score | 4.1 ± 0.9 IIEF 15 score | 4.1 ± 1.1 IIEF 15 score | 3.9 ± 1.1 IIEF 15 score | 12.2 ± 3.9 IIEF 15 Score | 2.9 ± 1.6 IIEF 15 score | 3.0 ± 1.1 IIEF 15 score | 3.2 ± 1.2 IIEF 15 score | 77.1 ± 16.1 min | 68.2 ± 13.5 min | 4.0 ± 1.1 IIEF 15 score | 1.4 ± 0.5 IIEF 15 score | 1.0 ± 0.3 IIEF 15 score | 1.9 ± 0.6 IIEF 15 score | 3.3 ± 1.1 IIEF 15 score | 1.3 ± 0.5 IIEF 15 score | 0.7 ± 0.3 IIEF 15 score | 1.7 ± 0.4 IIEF 15 score | 36.4 ± 5.3 min | 35.0 ± 9.1 min |  |
| CCCc1nn(C)c2c(=O)[nH]c(-c3cc(S(=O)(=O)N4CCN(C)CC4)ccc3OCC)nc12 [Sildenafil 100 mg, sildenafil] | 21.7 ± 6.8 IIEF 15 Score | 5.4 ± 2.7 IIEF 15 score | 5.9 ± 2.9 IIEF 15 score | 4.8 ± 2.5 IIEF 15 score | 11.9 ± 4.0 IIEF 15 Score | 2.7 ± 1.0 IIEF 15 score | 3.0 ± 0.9 IIEF 15 score | 3.1 ± 1.1 IIEF 15 score | 85.9 ± 14.3 min | 70.4 ± 13.2 min | 9.2 ± 1.9 IIEF 15 score | 2.4 ± 2.0 IIEF 15 score | 2.2 ± 0.9 IIEF 15 score | 2.9 ± 1.6 IIEF 15 score | 3.8 ± 2.9 IIEF 15 score | 1.1 ± 0.8 IIEF 15 score | 0.9 ± 0.6 IIEF 15 score | 1.3 ± 0.8 IIEF 15 score | 39.1 ± 7.9 min | 37.1 ± 8.5 min | Patients with recovery of sexual function (patients undergoing rrp): approximately 15%; Patients with recovery of sexual function [5]: approximately 45% |
